Assays:
[1] = tested on: Trypanosoma congolense (T. congolense IL-3000 strain), bloodstream form; assay: Whole cell Alamar Blue assay, T. congolense (72 h in vitro); format: cell-based; settings: Trypanosoma congolense, 72 h, T. congolense IL-3000, 72 h in vitro Alamar Blue assay
Method: (§1) Activity of compounds 1–71 against T. congolense and T. vivax was determined using the whole cell assays as described ^6 and their IC50 values are summarized in Table 1.
(§2) [6] Assay methods for determination of T. c. and T. v. […] Culture media consisted of complete HMI-9 (IMDM) with 20% bovine serum. To ensure log growth phase, trypanosomes were sub-cultured at appropriate dilutions every 2–3 days. Bloodstream form Trypanosoma vivax (T. vivax) cannot be cultured axenically, therefore trypanosomes (T. vivax STIB719/ILRAD 560 strain) were harvested from a highly parasitemia mouse via cardiac puncture and used directly in the ex vivo drug sensitivity assay on the same day. […] Parasite starting concentrations of 2 × 10^5 (T. c.) and 4 × 10^5 (T. v.) were calculated respectively, using a cell analyzer system or haemo-cytometer, followed by quantification at 536 nm excitation and 588 nm emission wavelengths using a […] reader. Test compounds were prepared as 10 mg/mL DMSO stocks for each assay run. Compounds were assayed in at least three separate, independent test runs and an 11-point dilution curve was used to determine the IC50 values. Data points were averaged to generate sigmoidal dose-response curves and IC50 values were determined using Softmax Pro 5.2 software.

[2] = tested on: Trypanosoma vivax (T. vivax STIB719/ILRAD 560 strain), bloodstream form; assay: Whole cell Alamar Blue assay, T. vivax (48 h ex vivo); format: cell-based; settings: T. vivax STIB719/ILRAD 560, 48 h ex vivo Alamar Blue assay; for IC50: Trypanosoma vivax
Method: as §1, §2

[3] = In vitro metabolic stability, mouse S9; format: in vitro ADME; settings: S9 fraction
Method: (§3) Selected compounds were screened in both mouse and bovine in vitro metabolic stability assays (mouse S9 and bovine S9), as summarized in Table 2. These two species were chosen because the primary in vivo assays were conducted in mice, and the target animal of this research program is cattle. […] We evaluated the efficacy of selected compounds in two in vivo mouse models of infection, against T. congolense and T. vivax, respectively. Mice were infected with either 1 × 10^5 T. c. parasites or 1 × 10^4 T. v. parasites, and then treated with a test compound via intraperitoneal administration for 1, 2 or 4 consecutive days. The mice were then monitored for the presence of parasitemia for up to 60 days post treatment.[7] We tested in T. c. model first, then followed up with T. v. for interesting compounds. […] We selected compound 5 (AN11736) to progress to exploratory studies to determine the efficacy and safety in a preliminary formulation against induced infections of T. vivax and T. congolense in cattle.[8]

[4] = In vitro metabolic stability, bovine S9; format: in vitro ADME; settings: S9 fraction
Method: as §3

[5] = tested on: T. c. parasites (STIB736/IL1180 strain); assay: In vivo mouse model of T. congolense infection; parameters: species or system NMRI female mice; settings: intraperitoneal, monitored 60 days post treatment
Method: as §3
(§4) [7] Methods for testing compound efficacy in mouse models: In vivo mouse efficacy studies were performed at the Swiss TPH, using established mouse models of infection for T. c. and T. v. NMRI female mice were independently infected either with 1 × 10^5T. c. parasites/mouse (STIB736/IL1180 strain) or 1 × 10^4T. v. parasites/mouse (STIB719/ILRAD560 strain) using an intraperitoneal route. Parasitemia was allowed to develop over 7 days (T. c.) or 3 days (T. v.), respectively, before treatment was administered. Compounds were administered via intraperitoneal injection in 10% DMSO/water. Four mice were used per treatment group. Mice were monitored for the presence of trypanosomes, via tail blood examination microscopically with twice-per-week parasitemia checks for 60 days post treatment. Parasitemia was graded on a scale of 0–3, with 0 indicating no trypanosomes seen in 20 fields of view, 1 indicating the presence of 1–5 trypanosomes per field, 2 indicating the presence of 6–20 trypanosomes per field and 3 indicating greater than 20 trypanosomes per field. Mice scoring 2 or 3 were immediately euthanized. After 60 days, aparasitemic mice were considered cured. Untreated control mice survive on average for 10 and 6 days post infection for T. c. and T. v., respectively. All in vivo mouse experiments were conducted in accordance with the strict guidelines set out by the Swiss Federal Veterinary Office, under the ethical approval of license number #2813.

[6] = tested on: T. v. parasites (STIB719/ILRAD560 strain); assay: In vivo mouse model of T. vivax infection; parameters: species or system NMRI female mice; settings: intraperitoneal, monitored 60 days post treatment
Method: as §3, §4

| Structure (SMILES) | IC50 [1] [nM] | IC50 [2] [nM] | microsomal CLint [3] [µL/min/mg] | microsomal CLint [4] [µL/min/mg] | Efficacy in mouse model T. c., n/m (mice survived / total mice in group) ([5]; 1 × 10 mg/kg) | IC50 (nM) T. v. [2] | Efficacy in mouse model T. c., n/m (mice survived / total mice in group) ([5]; 4 × 10 mg/kg) | Efficacy in mouse model T. c., n/m (mice survived / total mice in group) ([5]; 2 × 10 mg/kg) | Efficacy in mouse model T. v., n/m (mice survived / total mice in group) ([6]; 1 × 10 mg/kg) | Efficacy in mouse model T. v., n/m (mice survived / total mice in group) ([6]; 2 × 10 mg/kg) |
| --- | --- | --- | --- | --- | --- | --- | --- | --- | --- | --- |
| Cc1c(C(=O)N[C@H](C(=O)OCc2cccc(CN3CCN(C)CC3)c2)C(C)C)ccc2c1B(O)OC2 [Compound 52] | 1.3 | 0.29 | 1.8 | 6 | 0/4 (1 × 10) | – | – | – | – | – |
| Cc1c(C(=O)NC2(C(=O)OCc3ccc(F)cc3)CC2)ccc2c1B(O)OC2 [Compound 31] | 0.13 | 18 | < 1 | < 1 | 0/4 (1 × 10) | decreased activity | – | – | – | – |
| CC(C)[C@H](NC(=O)c1ccc2c(c1)B(O)OC2)C(=O)OCc1ccc(F)cc1 [Compound 20] | 3 | 1 | 1.5 | 1.3 | – | – | 0/5 (4 × 10) | – | – | – |
| Cc1c(C(=O)N[C@H](C(=O)OCc2cnc3ccccc3n2)C(C)C)ccc2c1B(O)OC2 [Compound 47] | 0.2 | 0.081 | 4.8 | 10 | 0/4 (1 × 10) | – | – | – | – | – |
| Cc1c(C(=O)N[C@H](C(=O)OCc2ccc(Cl)cc2)C(C)C)ccc2c1B(O)OC2 [Compound 6] | 0.47 | 2.9 | 17 | 9.1 | 0/4 (1 × 10) | – | – | – | – | – |
| Cc1c(C(=O)N[C@H](C(=O)OCc2ccccc2)C(C)C)ccc2c1B(O)OC2 [Compound 4] | 0.46 | 0.79 | – | – | – | – | – | 4/5 (2 × 10) | 4/4 | 5/5 |
| Cc1c(C(=O)N[C@H](C(=O)OCc2ccc(F)c(Cl)c2)C(C)C)ccc2c1B(O)OC2 [Compound 16] | 0.08 | 0.07 | 15 | 8.9 | 1/4 | – | – | 4/4 | – | – |
| Cc1c(C(=O)N[C@H](C(=O)OCc2nccc(C(F)(F)F)n2)C(C)C)ccc2c1B(O)OC2 [Compound 41] | 0.78 | 0.11 | 1.3 | 1.8 | 0/4 (1 × 10) | – | – | – | – | – |
| Cc1c(C(=O)N[C@H](C(=O)OCc2cccc(CN3CCOCC3)c2)C(C)C)ccc2c1B(O)OC2 [Compound 53] | 0.51 | 0.35 | 5.4 | 6.8 | 0/4 (1 × 10) | – | – | – | – | – |
| Cc1c(C(=O)N[C@H](C(=O)OCc2ccc(S(=O)(=O)N3CCN(C)CC3)cc2)C(C)C)ccc2c1B(O)OC2 [Compound 54] | 1 | 0.37 | 5.5 | 3.8 | 0/4 (1 × 10) | – | – | – | – | – |
| COC(=O)[C@@H](NC(=O)c1ccc2c(c1C)B(O)OC2)C(C)C [Compound 55] | 4.2 | 3.3 | < 1 | 3.1 | 0/4 (1 × 10) | – | – | – | – | – |
| CC(C)c1c(C(=O)N[C@H](C(=O)OCc2ccc(F)cc2)C(C)C)ccc2c1B(O)OC2 [Compound 26] | 2.3 | 0.05 | 32 | 32 | 0/4 (1 × 10) | – | – | – | – | – |
| Cc1c(C(=O)NC(C(=O)OCc2ccc(F)cc2)C(C)(C)F)ccc2c1B(O)OC2 (stereo not drawn) [Compound 30] | 0.09 | 0.25 | 3.7 | 3.1 | 0/4 (1 × 10) | – | – | – | – | – |
| Cc1c(C(=O)N[C@H](C(=O)OCc2ccc3ncccc3c2)C(C)C)ccc2c1B(O)OC2 [Compound 46] | 0.42 | 0.24 | 7.4 | 7 | 1/4 (1 × 10) | – | – | – | – | – |
| CCc1c(C(=O)N[C@H](C(=O)OCc2ccc(F)cc2)C(C)C)ccc2c1B(O)OC2 [Compound 24] | 0.11 | 0.05 | 21 | 23 | – | – | – | 1/4 (2 × 10) | – | – |
| Cc1c(C(=O)N[C@H](C(=O)OCc2cnccn2)C(C)C)ccc2c1B(O)OC2 [Compound 39] | 0.57 | 0.24 | 1.6 | 3.9 | 0/4 (1 × 10) | – | – | – | – | – |
| Cc1c(C(=O)N[C@H](C(=O)OCc2cc(F)c(F)c(F)c2)C(C)C)ccc2c1B(O)OC2 [Compound 18] | 0.2 | 0.06 | 9.7 | 3.1 | 1/4 (1 × 10) | – | – | – | – | – |
| Cc1c(C(=O)N[C@H](C(=O)OCc2ccc(F)c(C(F)(F)F)c2)C(C)C)ccc2c1B(O)OC2 [Compound 17] | 0.21 | 0.04 | 14 | 10 | 0/4 (1 × 10) | – | – | – | – | – |
| Cc1c(C(=O)N[C@H](C(=O)OCc2ccc(F)cc2)C(C)(C)O)ccc2c1B(O)OC2 [Compound 29] | 0.26 | 0.1 | < 1 | < 1 | 0/4 (1 × 10) | – | – | – | – | – |
| Cc1c(C(=O)N[C@H](C(=O)OCc2ncc3ccccc3n2)C(C)C)ccc2c1B(O)OC2 [Compound 48] | < 0.005 | 0.71 | 4 | 23 | 1/4 (1 × 10) | – | – | – | – | – |

Source: paper PMC5720837, “Identification of a 4-fluorobenzyl L-valinate amide benzoxaborole (AN11736) as a potential development candidate for the treatment of Animal African Trypanosomiasis (AAT)” (Bioorganic & Medicinal Chemistry Letters, 2018)
